EC50 data for 3 compounds are collected here from patent US20220204491A1, “FXR (NR1H4) MODULATING COMPOUNDS” (Gilead Sciences, Inc., priority 2019, published 2022).

The assay deals with T1, FXR ligand binding domain (Homo sapiens, UniProt Q96RI1).
T1 construct: expressed in transfected cells; host or cells: HEK293 (DSMZ), transient transfection of pCMV-BD-FXR-LBD, pFR-Luc and pRL-CMV
T1 sequence (Q96RI1 187-472 isoform Q96RI1-2): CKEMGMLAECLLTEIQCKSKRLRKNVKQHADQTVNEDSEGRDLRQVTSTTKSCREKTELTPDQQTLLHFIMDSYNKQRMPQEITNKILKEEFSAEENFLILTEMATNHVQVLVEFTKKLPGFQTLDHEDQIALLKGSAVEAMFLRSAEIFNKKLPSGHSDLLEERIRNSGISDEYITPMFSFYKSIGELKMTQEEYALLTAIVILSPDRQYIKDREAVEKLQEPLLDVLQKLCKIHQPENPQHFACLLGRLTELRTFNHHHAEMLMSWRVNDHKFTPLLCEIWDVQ
Nature of the assay: Mammalian one hybrid (M1H) Gal4 reporter assay in HEK293 cells. It is filed as cell-based. To be noted: Gal4-FXR-LBD luciferase reporter, 16 hours. Here is the method: Determination of a ligand mediated Gal4 promoter driven transactivation to quantify ligand binding mediated activation of FXR was performed as follows.
The cDNA part encoding the FXR ligand binding domain was cloned into vector pCMV-BD (Stratagene) as a fusion to the yeast GAL4 DNA binding domain under the control of the CMV promoter. The amino acid boundaries of the ligand binding domain were amino acids 187-472 of Database entry NM_005123 (RefSeq). The plasmid pFR-Luc (Stratagene) was used as the reporter plasmid, containing a synthetic promoter with five tandem repeats of the yeast GAL4 binding sites, driving the expression of the Photinus pyralis (American firefly) luciferase gene as the reporter gene. In order to improve experimental accuracy the plasmid pRL-CMV (Promega) was cotransfected. pRL-CMV contains the constitutive CMV promoter, controlling the expression of the Renilla reniformis luciferase. All Gal4 reporter gene assays were done in HEK293 cells (obtained from DSMZ, Braunschweig, Germany) grown in MEM with L-Glutamine and Earle's BSS supplemented with 10% fetal bovine serum, 0.1 mM nonessential amino acids, 1 mM sodium pyruvate, and 100 units Penicillin/[…] per mL at about 37° C. in 5% CO2. Medium and supplements were obtained from Invitrogen. For the assay, 5×10^5 cells were plated per well in 96 well plates in 100 μl per well MEM without Phenol Red and L-Glutamine and with Earle's BSS supplemented with 10% charcoal/dextran treated FBS (HyClone, South Logan, Utah), 0.1 mM nonessential amino acids, 2 mM glutamine, 1 mM sodium pyruvate, and 100 units Penicillin/[…] per mL, incubated at about 37° C. in 5% CO2. The following day the cells were >90% confluence. […] Cells were incubated for additional 16 hours before firefly and renilla luciferase activities were measured sequentially in the same cell extract using a Dual-Light-Luciferase-Assay system (Dyer et al., Anal. Biochem. 2000, 282, 158-161). […]

By EC50 is commonly meant the concentration giving half of the maximal effect. The low end stands for an effect from little substance, the high end for a need for much substance. For the compound `O=C(O)c1ccc(N2CC(O)(c3ccc(OCc4c(-c5c(Cl)cccc5Cl)noc4C4CC4)cc3Cl)C2)nc1` [Comparative Example 2], it took 2 nM to reach a half-maximal effect (EC50). Then `O=C(O)c1ccc(N2CC(O)(c3ccc(OCc4c(-c5c(Cl)cc(F)cc5Cl)noc4C4CC4)cc3Cl)C2)nc1` [Example 1, 6-(3-(2-chloro-4-((5-cyclopropyl-3-(2,6-dichloro-4-fluorophenyl)isoxazol-4-yl)methoxy)phenyl)-3-hydroxyazetidin-1-yl)nicotinic acid], with 5.5 nM.

`O=C(O)c1cnc(N2CC(O)(c3ccc(OCc4c(-c5c(Cl)cc(F)cc5Cl)noc4C4CC4)cc3Cl)C2)c(F)c1` [Comparative Example 1, 6-(3-(2-chloro-4-((5-cyclopropyl-3-(2,6-dichloro-4-fluorophenyl)isoxazol-4-yl)methoxy)phenyl)-3-hydroxyazetidin-1-yl)-5-fluoronicotinic acid] gave an EC50 of 1.2 nM.
